This is an account of results in article PMC9249808, “A novel lipidic peptide with potential to promote balanced effector-regulatory T cell responses” (Scientific Reports, 2022).

The test system of one test is Lck. Nature of the test: Kinase profiling, Lck. It is filed as biochemical. The settings on record: Eurofins KinaseProfiler, [γ-33P-ATP] scintillation, 0.003-10 uM, 2% DMSO, no pre-incubation, Fig. 6c, 6e. The method, then: Non-cell-based kinase profiling assays were performed by Eurofins (France). All compounds were prepared to 50 × final assay concentration in 100% DMSO. This working stock of the compound was added to assay wells as the first component in the reaction, followed by the remaining components as detailed in the specific assay protocols below. In the standard KinaseProfiler service, there was no pre-incubation step between the compound and the kinase prior to initiation of the reaction. Control wells contained all components of the reaction, except the compound of interest; however, DMSO (at a final concentration of 2%) was included in these wells to control for solvent effects. […] The reference inhibitors for each kinase are indicated in the methods for each kinase assay. […] Kinase activities were assessed in the presence of compounds at a concentration range of 0.003 -10 uM and the following kinases were tested: c-Src, Lck, Jak1, Jak2, Tyk2, CaMKIV and HPK1 (MAP4K1). Reactions between IK14004, substrates and MgAcetate/[γ^33P-ATP] mixes for each respective kinase were stopped by the addition of phosphoric acid and reaction mixtures spotted on P30 filtermats for scintillation according to the detailed methods available from Eurofins. The activities of Lck and c-Src were also assessed in the presence of the unconjugated components of IK14004, i.e., […] (IK14000) and the dodecanoic acid moiety [(2)Adod]4 (IK00041) and a lipidic peptide containing substituted amino acid residues (IK14DE04).

Test [1] concerns CD8+ T cells within PBMC cultures. Nature of the test: Intracellular IFN-γ in CD8+ T cells within PBMC cultures (flow cytometry). Format: cell-based, human. The settings on record: anti-CD3, 24 h, MFI, n = 4, Fig. 5d. The protocol:
PBMCs were resuspended in RPMI-10 (RPMI-1640; ThermoFisher) supplemented with 10% heat inactivated Foetal Bovine Serum (LabTech), 100 U/mL penicillin, 100 µg/mL streptomycin (ThermoFisher), 2 mM L-glutamine (ThermoFisher), and 50 µM β-mercaptoethanol (ThermoFisher) at 1 × 10^6 cells/mL and plated at a density of 1 × 10^5 per well (100 µL) in 96-well, flat-bottom culture plates. PBMCs were stimulated with 1 µg/mL of soluble anti-CD3 (BioLegend). The lipidic peptide, IK14004, and IK14000, i.e., […] minus conjugation to [{2}Adod]4, were solubilised as a 1 mM stock solution in sterile milliQ water (Lonza) and added to wells at a final volume of 50 µL per well together with soluble anti-CD3 (1 µg/mL final, 50 µL per well) (Biolegend). To test the effect of peptides, cells were cultured for 24–72 h at 37 °C and 5% CO2. Vehicle controls in peptide-based experiments comprised 0.13% sterile milliQ water in culture medium whereas 0.1% DMSO in culture medium was used as vehicle control for comparison with the Lck inhibitor, A-770041, in the absence of peptides. […]
In general terms: In flow cytometry, cells or beads pass a laser one at a time.

Another test has as its system Lck-WT protein. Nature of the test: Lck binding assay (non-cell-based ELISA). The settings on record: peptide coated 10 µg/mL in PBS, 4 °C 20 h; Lck-WT (mCherry, c-myc tag) 2 h room temperature, HRP anti myc, 450 nm; duplicate experiments, 3 technical replicates; negative control PBS; Fig. 6b. The protocol:
Lck wild-type (Lck-WT) was prepared in CHO cells. The plasmid for the expression of Lck-WT protein was kindly provided by the research laboratory of Professor Katarina Gaus. The plasmid was encoded for mammalian cell expression of the Lck-WT protein with a C-terminal mCherry reporter. A twin-strep tag was incorporated at the N-terminal of the Lck-WT for purification, and a c-myc epitope tag was placed at the C-terminal, after mCherry for detection of protein expression. A midiprep DNA preparation of the plasmid was performed using the Macherey–Nagel Midi kit as per manufacturer’s instructions. For transient transfections plasmid DNA was transfected into CHO-S cells using 2 μg DNA mL^−1 cells at a concentration of 3 million cells mL^−1. DNA was complexed with polyethylenimine-Pro (PolyPlus) in Opti-Pro serum free medium (Life Technologies) at a DNA (μg) to PEI (μL) ratio of 1:4 (w:v) for 15 min prior to transfecting suspension adapted CHO cells. […]
The peptides, IK14004 and IK14000, were reconstituted into PBS at 1 mg/mL. […] 100 µL of 2 M sulphuric acid was added to stop the reaction and the absorbance values recorded at a wavelength of 450 nm using SpectraMax (Molecular Devices).
A general note: An ELISA detects its analyte on a solid surface through an enzyme-linked reagent.

For the sequence RSKAKNPLYR [IK14000], the Lck activity entry with Lck is reported as “neither IK14000 nor IK00041 had an effect”. In test [1], the “intracellular expression of IFN-γ in CD8+ T cells” value is “unchanged”. In the test on Lck-WT protein, the “binding to Lck” value is “no different to the negative control”.
